Source: patent US5055472A, “Pyrazolopyrimidine type mevalonolactones” (Nissan Chemical Industries, Ltd., priority 1988, dated 1991)

Key:
[1] = test system: cholesterol biosynthesis in Hep G2 cells; assay: Test B-1: Inhibition of cholesterol biosynthesis in culture cells (Hep G2); format: cell-based; settings: for inhibition at 1 µM: 1.0 × 10^-6 mol/l, Hep G2 cells, read-out: Inhibitory activities at a concentration of 1.0 × 10^-6 mol/l by Test B-1 (Relative activities); for Relative activities by Test B-1: relative to CS-514 = 1 (Test B-1)
Description: Hep G2 cells at over 5th passage were seeded to 12 well plates and incubated with Dulbecco's modified Eagle (DME) medium containing 10% of fetal bovine serum (FBS) at 37° C., 5% CO2 until cells were confluent for about 7 days. Cells were exposed to the DME medium contaiing 5% of lipoprotein deficient serum (LpDS) prepared by ultracentrifugation method for over 24 hours. Medium was changed to 0.5 ml of fresh 5% LpDS containing DME before assay and 10 μl of test compound solution dissolved in water or DMSO were added. 0.2 μCi of [2-^14 C]sodium acetate (20 μl ) was added at 0 hr(B-1) or 4 hrs(B-2) after addition of compounds. After 4 hrs further incubation with [2-^14 C]sodium acetate, medium was removed and cells were washed with phosphate buffered saline (PBS) chilled at 4° C. Cells were scraped with rubber policeman and collected to tubes with PBS and digested with 0.2 ml of 0.5 N KOH at 37° C. Aliquot of digestion was used for protein analysis and remaining was saponified with 1 ml of 15% EtOH-KOH at 75° C. for 1 hour. Nonsaponifiable lipids were extracted with petroleum ether and ^14 C radioactivity was counted. Counts were revised by cell protein and indicated with DPM/mg protein. Inhibitory activity of compounds was indicated with IC50. With respect to the compounds of the present invention, the inhibitory activities against the cholesterol biosynthesis in which HMG-CoA reductase serves as a rate limiting enzyme, were measured by the above Test A and B.

[2] = test system: cholesterol biosynthesis; assay: Test C: Inhibition of cholesterol biosynthesis in vivo; set-up: species or system Male Sprague-Dawley rats; settings: 0.2 mg/kg, oral administration, rats
Description: Male Sprague-Dawley rats weighing about 150 g were fed normal Purina chow diet and water ad libitum, and exposed to 12 hours light/12 hours dark lighting pattern (2:00 PM-2:00 AM dark) prior to use for in vivo inhibition test of cholesterol biosynthesis. Animals were separated groups consisting of five rats as to be average mean body weight in each groups. Test compounds at dosage of 0.02-0.2 mg/kg body weight (0.4 ml/100 g body weight), were dissolved in water or suspended in 0.5% methyl cellulose and orally administered at 2-3 hours before mid-dark (8:00 PM), while cholesterol biosynthesis reaches to maximum in rats. As control, rats were orally administered only water or vehicle. At 90 minutes after sample administration, rats were injected intraperitoneally with 10 μCi of [2-^14 C]sodium acetate at volume of 0.2 ml per one. 2 Hours later, blood samples were obtained and serum were separated immediately. Total lipids were extracted according to the method of Folch et al. and saponified with EtOH-KOH. Nonsaponifiable lipids were extracted with petroleum ether and radio activity incorporated into nonsaponifiable lipids was counted. Inhibitory activity was indicated as percent decrease of counts in testing groups (DPM/2 ml serum/2 hours) from that in control group.

[3] = test system: cholesterol biosynthesis; assay: Test A: Inhibition of cholesterol biosynthesis from acetate in vitro; format: biochemical, male Wistar rat; settings: relative to CS-514 = 1 (Test A)
Description: Enzyme solution was prepared from liver of male Wistar rat billialy connulated and discharged bile for over 24 hours. Liver was cut out at mid-dark and microsome and supernatant fraction which was precipitable with 40-80% of solution of ammonium sulfate (sup fraction) were prepared from liver homogenate according to the modified method of Knauss et. al.; Kuroda, M., et. al., Biochim. Biophys. Acta, 489, 119 (1977). For assay of cholesterol biosynthesis, microsome (0.1 mg protein) and sup fraction (1.0 mg protein) were incubated for 2 hours at 37° C. in 200 μl of the reaction mixture containing ATP; 1 mM, Glutathione; 6 mM, Glucose-1-phosphate; 10 mM, NAD; 0.25 mM, NADP; 0.25 mM, CoA; 0.04 mM and 0.2 mM [2-^14 C]sodium acetate (0.2 μCi) with 4 μl of test compound solution dissolved in water or dimethyl sulfoxide. To stop reaction and saponify, 1 ml of 15% EtOH-KOH was added to the reactions and heated at 75° C. for 1 hour. Nonsaponifiable, lipids were extracted with petroleum ether and incorporated ^14 C radioactivity was counted. Inhibitory activity of compounds was indicated with IC50.
With respect to the compounds of the present invention, the inhibitory activities against the cholesterol biosynthesis in which HMG-CoA reductase serves as a rate limiting enzyme, were measured by the above Test A and B. The results are shown in Tables 2, 3-1 and 3-2.
The relative activities of the compounds of the present invention based on the activities of CS-514 by Test A being evaluated to be 1, are shown in Table 2.

[4] = Test D: Acute toxicity; settings: mouse, in vivo, 1000 mg/kg; 1,000 mg/kg oral, 0.5% CMC suspension, ICR male mice, after seven days
Description: A 0.5% CMC suspension of a test compound was orally administered to ICR male mice (group of three mice). The acute toxicity was determined based on the mortality after seven days. With compound I 5-4 and I-5-6 of the present ivnention, the mortality was 0% even when they were orally administered in an amount of 1,000 mg/kg, respectively.

| Structure (SMILES) | inhibition at 1 µM ([1]; Homo sapiens, HepG2) [%] | Relative activities by Test A [3] | also measured |
| --- | --- | --- | --- |
| CCC(C)C(=O)OC1CC(O)C=C2C=CC(C)C(CCC(O)CC(O)CC(=O)O)C21 (stereo not shown) [CS-514, reference compound] | – | – | IC50 ([1]; Homo sapiens, HepG2, Test B-1, Hep G2 cells, [2-14C]sodium acetate added at 0 hr, read-out: IC50 in Test B1): 3.66 µM; percent decrease of counts relative to control group [2]: 34% |
| CCOC(=O)CC(O)CC(O)/C=C/c1c(C(C)C)nc2cc(C)nn2c1-c1ccc(F)cc1 (stereo not shown) [Compound I-1-1, Ethyl (E)-7-[7'-(4"-fluorophenyl)-2'-methyl-5'-(1"-methylethyl)pyrazolo[1,5-a]pyrimidin-6'-yl]-3,5-dihydroxyhept-6-enoate] | 67.3 | – | Relative activities by Test B-1 [1]: 17.8 |
| CCOC(=O)CC(O)CC(O)/C=C/c1c(C(C)C)nc2cc(-c3ccccc3)nn2c1-c1ccc(F)cc1 (stereo not shown) [Compound I-1-3] | 66.1 | – | Relative activities by Test B-1 [1]: 29.5 |
| Cc1cc2nc(C(C)C)c(/C=C/C(O)CC(O)CC(=O)O)c(-c3ccc(F)cc3)n2n1 (stereo not shown) [Compound I-5-1, Sodium (E)-7-[7'-(4"-fluorophenyl)-2'-methyl-5'-(1"-methylethyl)pyrazolo[1,5-a]pyrimidin-6'-yl]-3,5-dihydroxyhept-6-enoate] | 53.9 | 0.64 | percent decrease of counts relative to control group [2]: 50% |
| CC(C)c1nc2cc(C(C)(C)C)nn2c(-c2ccc(F)cc2)c1/C=C/C(O)CC(O)CC(=O)O (stereo not shown) [Compound I-5-2] | 44.6 | 0.09 | – |
| CC(C)c1nc2cc(-c3ccccc3)nn2c(-c2ccc(F)cc2)c1/C=C/C(O)CC(O)CC(=O)O (stereo not shown) [Compound I-5-3] | 66.3 | 0.27 | Relative activities by Test B-1 [1]: 26.0 |
| Cc1cc2nc(C3CC3)c(/C=C/C(O)CC(O)CC(=O)O)c(-c3ccc(F)cc3)n2n1 (stereo not shown) [Compound I-5-4] | 57.1 | 0.39 | mortality at 168 h [4]: 0% |
| Cc1nn2c(-c3ccc(F)cc3)c(/C=C/C(O)CC(O)CC(=O)O)c(C3CC3)nc2c1C (stereo not shown) [Compound I-5-5] | 55.3 | 0.29 | – |
| Cc1nn2c(-c3ccc(F)cc3)c(/C=C/C(O)CC(O)CC(=O)O)c(C3CC3)nc2c1-c1ccccc1 (stereo not shown) [Compound I-5-6] | 58 | 0.75 | mortality at 168 h [4]: 0% |
| CC(C)c1nc2cc(-c3ccco3)nn2c(-c2ccc(F)cc2)c1/C=C/C(O)CC(O)CC(=O)O (stereo not shown) [Compound I-5-7] | – | 0.20 | – |
| CC(C)c1cc2nc(C3CC3)c(/C=C/C(O)CC(O)CC(=O)O)c(-c3ccc(F)cc3)n2n1 (stereo not shown) [Compound I-5-8] | – | 0.09 | – |
| CC(C)c1nc2c3c(nn2c(-c2ccc(F)cc2)c1/C=C/C(O)CC(O)CC(=O)O)CCCC3 (stereo not shown) [Compound I-5-9] | – | 0.13 | – |
